Earlier results as cited in article PMC5358987 (Drug Design, Development and Therapy, 2017).

Key:
[1] = test system: tyrosinase
[2] = test system: HRM2 hairless mice

Tyrosinase inhibition [1]: potent competitive tyrosinase inhibitors
SMILES: O=C(O)[C@@H]1CSC(c2ccc(O)cc2O)N1 (mixture of isomers) [MHY384, (2RS,4R)-2-(2,4-dihydroxyphenyl)thiazolidine-4-carboxylic acid]
Reduction of melanogenesis [2]: effectively reduce melanogenesis
